For 23 compounds, Kd results are on record in US20240190849A1, “AMINOPYRIMIDINE COMPOUNDS AND METHODS OF THEIR USE” (TYRA BIOSCIENCES, INC., priority 2021, published 2024).

What all share (conditions): FGFR binding data
Test [1] has as its target T1, FGFR1 (Homo sapiens, UniProt P11362).
T1 construct: made in house; host or cells: E. coli derived from BL21, infected with T7 phage
The test can be described thus: Kinase binding assay (kinase-tagged T7 phage, affinity beads, qPCR readout), FGFR1. In outline:
(§1)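 First, streptavidin beads were loaded with biotinylated ligand and blocked. Kinase, beads and compound were then shaken together for 1 hour at room temperature in SeaBlock/PBS/Tween/DTT buffer. Finally, eluted kinase was measured by qPCR and Kd fitted with Hill slope −1.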

Test [2] concerns the target T2, FGFR2 (Homo sapiens, UniProt P21802).
T2 construct: made in house; host or cells: E. coli derived from BL21, infected with T7 phage
The test can be described thus: Kinase binding assay (kinase-tagged T7 phage, affinity beads, qPCR readout), FGFR2. The essentials: as §1

In test [3] the target is T3, FGFR3 (Homo sapiens, UniProt P22607).
T3 construct: made in house; host or cells: E. coli derived from BL21, infected with T7 phage
T3 sequence (P22607 23-806): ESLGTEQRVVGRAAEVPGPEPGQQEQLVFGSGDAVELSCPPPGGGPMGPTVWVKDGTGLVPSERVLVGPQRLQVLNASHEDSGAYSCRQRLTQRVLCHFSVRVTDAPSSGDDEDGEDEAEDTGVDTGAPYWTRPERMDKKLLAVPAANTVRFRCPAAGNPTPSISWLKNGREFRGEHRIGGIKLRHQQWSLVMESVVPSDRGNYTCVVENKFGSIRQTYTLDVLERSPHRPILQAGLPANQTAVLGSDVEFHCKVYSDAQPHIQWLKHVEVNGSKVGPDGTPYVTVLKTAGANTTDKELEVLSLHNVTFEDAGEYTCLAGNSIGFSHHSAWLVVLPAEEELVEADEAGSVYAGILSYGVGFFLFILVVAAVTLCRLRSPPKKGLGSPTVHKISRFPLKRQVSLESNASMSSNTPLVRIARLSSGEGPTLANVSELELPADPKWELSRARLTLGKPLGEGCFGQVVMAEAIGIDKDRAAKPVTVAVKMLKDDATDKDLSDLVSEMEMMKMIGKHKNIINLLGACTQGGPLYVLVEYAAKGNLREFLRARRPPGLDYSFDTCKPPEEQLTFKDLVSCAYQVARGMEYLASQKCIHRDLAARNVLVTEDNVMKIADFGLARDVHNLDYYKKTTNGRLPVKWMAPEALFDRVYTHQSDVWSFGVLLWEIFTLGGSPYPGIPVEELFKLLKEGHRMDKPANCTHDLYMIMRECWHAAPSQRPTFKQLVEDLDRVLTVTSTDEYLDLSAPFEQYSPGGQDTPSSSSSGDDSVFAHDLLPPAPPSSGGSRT
Put plainly: Kinase binding assay (kinase-tagged T7 phage, affinity beads, qPCR readout), FGFR3. The essentials:
as §1

In test [4] the target is T4, FGFR3 (V555M) (Homo sapiens, UniProt P22607, V555M).
T4 construct: made in house; host or cells: E. coli derived from BL21, infected with T7 phage
T4 sequence (P22607 23-806 V555M): as the sequence (P22607 23-806) above, with V533M counted along it
The test can be described thus: Kinase binding assay (kinase-tagged T7 phage, affinity beads, qPCR readout), FGFR3 (V555M). In outline: as §1

SMILES strings stand for the structures.

T2 sequence (P21802 22-821): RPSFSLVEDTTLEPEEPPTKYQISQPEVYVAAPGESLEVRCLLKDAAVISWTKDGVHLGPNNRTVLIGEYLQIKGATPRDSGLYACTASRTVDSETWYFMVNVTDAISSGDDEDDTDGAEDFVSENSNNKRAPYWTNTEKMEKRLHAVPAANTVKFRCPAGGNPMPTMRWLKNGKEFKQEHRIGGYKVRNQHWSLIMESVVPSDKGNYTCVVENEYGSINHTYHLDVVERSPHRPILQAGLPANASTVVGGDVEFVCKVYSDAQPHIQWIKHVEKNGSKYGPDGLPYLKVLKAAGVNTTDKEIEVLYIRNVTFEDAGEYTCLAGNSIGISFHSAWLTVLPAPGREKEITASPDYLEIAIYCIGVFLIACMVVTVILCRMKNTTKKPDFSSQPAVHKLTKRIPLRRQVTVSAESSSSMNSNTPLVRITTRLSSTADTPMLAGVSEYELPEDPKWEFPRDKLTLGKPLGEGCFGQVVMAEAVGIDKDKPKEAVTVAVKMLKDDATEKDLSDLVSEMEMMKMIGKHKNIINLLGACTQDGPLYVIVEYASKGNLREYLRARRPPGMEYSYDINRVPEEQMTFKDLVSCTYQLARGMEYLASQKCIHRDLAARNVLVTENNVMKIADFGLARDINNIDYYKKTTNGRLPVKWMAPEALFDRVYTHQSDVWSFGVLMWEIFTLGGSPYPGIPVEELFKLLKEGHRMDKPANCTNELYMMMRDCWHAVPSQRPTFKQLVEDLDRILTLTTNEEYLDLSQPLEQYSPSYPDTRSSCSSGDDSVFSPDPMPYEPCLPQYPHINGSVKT
T1 sequence (P11362 22-822): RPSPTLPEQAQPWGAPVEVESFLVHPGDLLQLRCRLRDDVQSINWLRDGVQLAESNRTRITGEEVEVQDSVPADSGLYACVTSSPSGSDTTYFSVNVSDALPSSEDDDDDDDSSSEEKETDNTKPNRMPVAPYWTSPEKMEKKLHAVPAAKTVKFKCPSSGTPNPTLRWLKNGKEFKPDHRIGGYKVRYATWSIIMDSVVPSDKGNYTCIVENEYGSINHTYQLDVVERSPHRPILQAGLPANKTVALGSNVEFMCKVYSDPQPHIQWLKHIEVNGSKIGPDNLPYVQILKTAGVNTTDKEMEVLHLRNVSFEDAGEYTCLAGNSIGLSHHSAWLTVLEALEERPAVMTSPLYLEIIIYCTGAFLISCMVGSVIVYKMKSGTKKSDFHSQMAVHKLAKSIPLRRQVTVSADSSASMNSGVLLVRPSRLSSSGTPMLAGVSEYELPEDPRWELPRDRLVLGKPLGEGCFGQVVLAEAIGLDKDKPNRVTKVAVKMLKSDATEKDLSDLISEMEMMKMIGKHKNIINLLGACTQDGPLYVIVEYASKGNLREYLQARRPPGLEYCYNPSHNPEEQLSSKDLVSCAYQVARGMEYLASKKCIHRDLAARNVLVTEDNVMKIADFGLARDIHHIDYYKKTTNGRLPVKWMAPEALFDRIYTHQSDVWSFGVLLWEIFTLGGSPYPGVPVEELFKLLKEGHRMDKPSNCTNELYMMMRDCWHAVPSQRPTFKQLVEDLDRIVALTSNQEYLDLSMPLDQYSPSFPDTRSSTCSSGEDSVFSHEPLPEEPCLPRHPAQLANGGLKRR

In the case of `C=CC(=O)Nc1ccc2c(ccn2-c2nc(Nc3cnn(C)c3)ncc2Cl)c1C` [Example 18, N-[1-[5-chloro-2-[(1-methylpyrazol-4-yl)amino]pyrimidin-4-yl]-4-methyl-indol-5-yl]prop-2-enamide], the Kd in test [1] lay within 100 to 250 nM; in test [2], 100 to 250 nM; in test [3] it was 100 to 250 nM; in test [4], 0.1 to 100 nM.

With `CCn1cc(Nc2ncc(F)c(-n3cc(C)c4cc(NC(=O)/C=C/CN(C)C)cnc43)n2)c(C)n1` [Example 171, (E)-4-(dimethylamino)-N-[1-[2-[(1-ethyl-3-methyl-pyrazol-4-yl)amino]-5-fluoro-pyrimidin-4-yl]-3-methyl-pyrrolo[2,3-b]pyridin-5-yl]but-2-enamide], the Kd was 100 to 250 nM in test [1], 100 to 250 nM in test [2], 0.1 to 100 nM in test [3] and 100 to 250 nM in test [4].

For the compound `C=CC(=O)Nc1ccc2c(-c3nc(Nc4ccc(N(C)CCN(C)C)c(OC)c4)ncc3Cl)cn(C)c2c1` [Example 58, N-[3-[5-chloro-2-[4-[2-(dimethylamino)ethyl-methyl-amino]-3-methoxy-anilino]-pyrimidin-4-yl]-1-methyl-indol-6-yl]prop-2-enamide], the Kd in test [1], in test [2], in test [3] and in test [4] was 0.1 to 100 nM in each case.

For `C=CC(=O)Nc1ccc2c(-c3ccnc(Nc4ccn(C5CC5)n4)n3)cn(C)c2c1` [Example 112, N-[3-[2-[(1-cyclopropylpyrazol-3-yl)amino]pyrimidin-4-yl]-1-methyl-indol-6-yl]prop-2-enamide], the Kd in test [1] is 100 to 250 nM; in test [2], 100 to 250 nM; in test [3], 0.1 to 100 nM; in test [4], 0.1 to 100 nM.

For `C=CC(=O)Nc1cc(C)c2c(c1)c(C)cn2-c1nc(Nc2cnn(C)c2)ncc1Cl` [Example 71, N-[1-[5-chloro-2-[(1-methylpyrazol-4-yl)amino]pyrimidin-4-yl]-3,7-dimethyl-indol-5-yl]prop-2-enamide], the dissociation constant (Kd) in test [1], in test [2], in test [3] and in test [4] was greater than 1000 nM throughout.

In the case of `C=CC(=O)Nc1ccc2c(c1)c(C)cn2-c1nc(Nc2ccc(CN3CCOCC3)cc2)ncc1Cl` [Example 75, N-[1-[5-chloro-2-[4-(morpholinomethyl)anilino]pyrimidin-4-yl]-3-methyl-indol-5-yl]prop-2-enamide], the Kd in test [1], in test [2], in test [3] and in test [4] was 0.1 to 100 nM each time.

For `C=CC(=O)Nc1ccc2c(-c3ccnc(Nc4cnn(C(C)C)c4)n3)cn(C)c2c1` [Example 96, N-[3-[2-[(1-isopropylpyrazol-4-yl)amino]pyrimidin-4-yl]-1-methyl-indol-6-yl]prop-2-enamide], the dissociation constant Kd in test [1], in test [2], in test [3] and in test [4] was 0.1 to 100 nM each time.

In the case of `C=CC(=O)Nc1ccc2c(ccn2-c2nc(Nc3ccc(N4CCOCC4)cc3OCC)ncc2Cl)c1` [Example 11, N-[1-[5-chloro-2-(2-ethoxy-4-morpholino-anilino)pyrimidin-4-yl]indol-5-yl]prop-2-enamide], the Kd in test [1], in test [2], in test [3] and in test [4] was greater than 1000 nM in each case.

With `Cc1cn(-c2nc(Nc3cnn(C[C@H](C)O)c3)ncc2F)c2ncc(NC(=O)/C=C/CN(C)C)cc12` [Example 196, (E)-4-(dimethylamino)-N-[1-[5-fluoro-2-[[1-[(2S)-2-hydroxypropyl]pyrazol-4-yl]amino]pyrimidin-4-yl]-3-methyl-pyrrolo[2,3-b]pyridin-5-yl]but-2-enamide], the Kd in test [1], in test [2], in test [3] and in test [4] was 0.1 to 100 nM throughout.

As to `C=CC(=O)Nc1ccc2c(c1)c(C)cn2-c1nc(Nc2cnn(CC(C)OC)c2)ncc1F` (centres unmarked) [Example 204, N-[1-[5-fluoro-2-[[1-(2-methoxypropyl)pyrazol-4-yl]amino]pyrimidin-4-yl]-3-methyl-indol-5-yl]prop-2-enamide], the Kd in test [1], in test [2], in test [3] and in test [4] was 0.1 to 100 nM in each case.

In the case of `CCC(=O)Nc1ccc2c(ccn2-c2nc(Nc3ccc(N4CCN(C)CC4)cc3)ncc2Cl)c1` [Example 4, N-[1-[5-chloro-2-[4-(4-methylpiperazin-1-yl)anilino]pyrimidin-4-yl]indol-5-yl]propanamide], the Kd in test [1] was in the range of 0.1 to 100 nM; in test [2], 250 to 1000 nM; in test [3], 100 to 250 nM; in test [4], 0.1 to 100 nM.

Regarding `C=CC(=O)Nc1ccc2c(-c3nc(Nc4ccnn4C)ncc3Cl)cn(C)c2c1` [Example 62, N-[3-[5-chloro-2-[(2-methylpyrazol-3-yl)amino]pyrimidin-4-yl]-1-methyl-indol-6-yl]prop-2-enamide], the Kd in test [1] lay within 250 to 1000 nM; in test [2], 0.1 to 100 nM; in test [3], 0.1 to 100 nM; in test [4], 0.1 to 100 nM.

For the compound `C=CC(=O)Nc1ccc2c(c1)c(C)cn2-c1cc(Nc2cnn(C)c2)ncc1C` [Example 223, N-[3-methyl-1-[5-methyl-2-[(1-methylpyrazol-4-yl)amino]-4-pyridyl]indol-5-yl]prop-2-enamide], the Kd in test [1], in test [2], in test [3] and in test [4] was 0.1 to 100 nM in each case.

On to `C=CC(=O)Nc1cnc2c(c1)c(C)cn2-c1nc(Nc2ccn(CC)n2)ncc1C` [Example 114, N-[1-[2-[(1-ethylpyrazol-3-yl)amino]-5-methyl-pyrimidin-4-yl]-3-methyl-pyrrolo[2,3-b]pyridin-5-yl]prop-2-enamide], for which the Kd in test [1], in test [2], in test [3] and in test [4] was 0.1 to 100 nM in each case.

Take `Cc1nn(C)cc1Nc1ncc(F)c(-n2cc(C)c3cc(NC(=O)/C=C/CN4CCOCC4)cnc32)n1` [Example 213, (E)-N-[1-[2-[(1,3-dimethylpyrazol-4-yl)amino]-5-fluoro-pyrimidin-4-yl]-3-methyl-pyrrolo[2,3-b]pyridin-5-yl]-4-morpholino-but-2-enamide]: the Kd in test [1], in test [2], in test [3] and in test [4] was greater than 1000 nM in each case.

As for `C=CC(=O)Nc1ccc2c(-c3ccnc(Nc4cnn(CC(F)(F)F)c4)n3)cn(C)c2c1` [Example 168, N-[1-methyl-3-[2-[[1-(2,2,2-trifluoroethyl)pyrazol-4-yl]amino]pyrimidin-4-yl]indol-6-yl]prop-2-enamide], the dissociation constant Kd in test [1], in test [2], in test [3] and in test [4] was 0.1 to 100 nM in each case.

As to `C=CC(=O)Nc1ccc2c(c1)c(C)cn2-c1nc(Nc2conc2C)ncc1F` [Example 155, N-[1-[5-fluoro-2-[(3-methylisoxazol-4-yl)amino]pyrimidin-4-yl]-3-methyl-indol-5-yl]prop-2-enamide], the Kd in test [1] lay within 100 to 250 nM; in test [2] it was 0.1 to 100 nM; in test [3], 0.1 to 100 nM; in test [4] it was 0.1 to 100 nM.

Regarding `C=CC(=O)Nc1ccc2c(ccn2-c2nc(Nc3cccc(OCCN4CCOCC4)c3)ncc2C)c1C` [Example 5, N-[4-methyl-1-[5-methyl-2-[3-(2-morpholinoethoxy)anilino]pyrimidin-4-yl]indol-5-yl]prop-2-enamide], the Kd is 250 to 1000 nM in test [1], 100 to 250 nM in test [2], 100 to 250 nM in test [3] and 0.1 to 100 nM in test [4].

Consider `C=CC(=O)Nc1ccc2c(-c3nc(Nc4ccc(N5CCOCC5)cc4)ncc3C)cn(C)c2c1` [Example 52, N-[1-Methyl-3-[5-methyl-2-(4-morpholinoanilino)pyrimidin-4-yl]indol-6-yl]prop-2-enamide], for which the Kd in test [1], in test [2], in test [3] and in test [4] was 0.1 to 100 nM throughout.

Regarding `C=CC(=O)Nc1ccc2c(c1)c1ccccc1n2-c1nc(Nc2cnn(C)c2)ncc1F` [Example 228, N-[9-[5-fluoro-2-[(1-methylpyrazol-4-yl)amino]pyrimidin-4-yl]carbazol-3-yl]prop-2-enamide], the Kd in test [1] is 0.1 to 100 nM; in test [2], 0.1 to 100 nM; in test [3], 0.1 to 100 nM; in test [4] it was greater than 1000 nM.

In the case of `C=CC(=O)Nc1cnc2c(c1)c(C)cn2-c1ccnc(Nc2ccn(C)n2)n1` [Example 98, N-[3-methyl-1-[2-[(1-methylpyrazol-3-yl)amino]pyrimidin-4-yl]pyrrolo[2,3-b]pyridin-5-yl]prop-2-enamide], the Kd in test [1], in test [2], in test [3] and in test [4] was 0.1 to 100 nM in each case.

Take `C=CS(=O)(=O)Nc1ccc2c(c1)c(C)cn2-c1nc(Nc2ccnn2C)ncc1C` [Example 109, N-[3-methyl-1-[5-methyl-2-[(2-methylpyrazol-3-yl)amino]pyrimidin-4-yl]indol-5-yl]ethenesulfonamide]: the Kd in test [1], in test [2], in test [3] and in test [4] was 0.1 to 100 nM throughout.

Consider `C=CC(=O)Nc1ccc2c(-c3nc(Nc4ccc(N5CCN(C)CC5)nc4)ncc3Cl)cn(C)c2c1` [Example 59, N-[3-[5-chloro-2-[[6-(4-methylpiperazin-1-yl)-3-pyridyl]amino]pyrimidin-4-yl]-1-methyl-indol-6-yl]prop-2-enamide], for which the Kd in test [1], in test [2], in test [3] and in test [4] was 0.1 to 100 nM each time.
